From paper PMC6085820 (Molecular Biology of the Cell, 2018)

Molecular target: T1, Mtq2:Trm112 (Saccharomyces cerevisiae, UniProt Q03920)
T1 sequence (Q03920 1-221): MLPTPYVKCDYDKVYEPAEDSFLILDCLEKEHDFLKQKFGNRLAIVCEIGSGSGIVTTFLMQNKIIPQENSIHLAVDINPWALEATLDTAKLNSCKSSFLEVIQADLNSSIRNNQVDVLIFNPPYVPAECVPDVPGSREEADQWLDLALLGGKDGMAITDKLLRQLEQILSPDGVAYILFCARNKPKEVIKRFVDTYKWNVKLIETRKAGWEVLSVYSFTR
T1 sequence (P53738 1-135 partner): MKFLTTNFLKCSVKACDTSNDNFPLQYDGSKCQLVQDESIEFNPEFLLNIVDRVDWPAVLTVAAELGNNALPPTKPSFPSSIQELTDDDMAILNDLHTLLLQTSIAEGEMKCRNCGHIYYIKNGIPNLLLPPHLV
Assay: MTase-Glo coupled luminescence assay
Format: biochemical
Details: SAM as methyl donor

SMILES	MTase-Glo coupled luminescence assay (SAH formation) (100 µM As(III))	MTase-Glo coupled luminescence assay (SAH formation) (100 µM MAs(III))
O[As](O)O [As(III), sodium arsenite]	SAM-dependent methyltransferase activity of Mtq2:Trm112 using As(III) as substrate was measured	
C[As](O)O [MAs(III), methyl arsenite]		methyltransferase activity was SAM-dependent and additionally capable of using MAs(III) as a substrate
